Data: patent publication US10865222B2, “Neisseria gonorrhoeae therapeutic based on CMP-nonulosonate sugars” (priority 2014, dated 2020)
Entries after “also recorded” stand apart in the source; their conditions may differ.

Legend:
[1] = molecular target: T1, gonococcal LOS sialyltransferase (Lst) (Neisseria gonorrhoeae, UniProt P72074); type: cell-based, N. gonorrhoeae; settings: CMP salt 30 μM (20 μg/ml), 2 h at 37° C.
T1 construct: served as substrates for gonococcal Lst in the context of live bacteria; endogenous in cells; host or cells: N. gonorrhoeae F62 ΔlgtD (live bacteria)
Protocol: FIG. 1. Substrate specificity of gonococcal LOS sialyltransferase (Lst) N. gonorrhoeae strain F62 ΔIgtD was grown in standard gonococcal liquid media alone (‘No sialic acid’) or in media supplemented with CMP salts of the indicated sialic acid or nonulosonic acid, each at a concentration of 20 μg/ml (˜30 μM), for 2 h at 37° C. Bacteria were washed, pellets treated with protease K, lysed in 4×LDS buffer and lysates were separated on 12% Bis-Tris gels using MES running buffer. LOS was transferred to a PVDF membrane and probed with mAb 3F11 that recognizes the lacto-N-neotetraose only in the non-sialylated state; the addition of a sialic acid or nonulosonate residue abrogates mAb 3F11 binding (upper panel). LOS was also visualized by silver staining (middle panel). Sialylation or nonulosonate (NulO) modification was also quantified using whole cell ELISA with mAb 3F11 (lower graph).
To define the substrate specificity of gonococcal LOS sialyltransferase, N. gonorrhoeae F62 ΔIgtD was grown in media alone, or media that contained the CMP-activated derivatives of 7 nonulosonates (listed in Table 1), each at a concentration of 30 μM (20 μg/ml). Following incubation for 2 h at 37° C., bacteria were washed, lysed with protease K/LDS sample buffer and separated on 12% Bis-tris gels. Blots were probed with mAb 3F11, which binds to the terminal lactosamine residue of lacto-N-neotetraose (LNT); any extension beyond the terminal Gal (in this instance with a nonose) would abrogate 3F11 binding. […] Whole cell ELISA with mAb 3F11 confirmed results of western blotting (FIG. 1, lower graph).
Bacteria (F62 ΔIgtD) grown overnight on chocolate agar plates were suspended in gonococcal liquid media supplemented with IsoVitaleX (11) that contained specified concentrations of the CMP-nonulosonate. Bacteria were then incubated at 37° C. for the period specified in each experiment.
Gonococcal lysates treated with protease K (100 μg/ml) and NuPAGE® LDS Sample Buffer (4×) (Invitrogen) were separated on NuPAGE® 12% Bis-Tris (Invitrogen) gels using Novex® MES running buffer (Invitrogen) followed by sliver staining with the Bio-Rad Silver Stain Kit, or were transferred to an Immobilon PVDF membrane (Millipore). Membranes were blocked with PBS/1% milk and probed with tissue culture supernatants that contained mAb 3F11. mAb 3F11-reactive LOS bands were disclosed with anti-mouse IgM conjugated to alkaline phosphatase followed by the addition of BCIP®/NBT-Purple Liquid Substrate (Sigma).

[2] = system: N. gonorrhoeae F62 ΔIgtD; type: cell-based
Protocol: FIG. 2. […] N. gonorrhoeae F62 ΔIgtD was grown in media alone (no CMP-sialic acid added), or media that contained 20 μg/ml (˜30 μM) of each of the indicated CMP-nonulosonates. Resistance of bacteria to complement-dependent killing in the presence of 3.3%, 6.7% or 10% normal human serum (NHS) was measured in serum bactericidal assays.
FIG. 5. […] N. gonorrhoeae F62 ΔIgtD was suspended in media containing 20 μg/ml (˜30 μM) CMP-Neu5Ac. Following 15 min of incubation at 37° C., CMP-Neu5Ac9Az or CMP-Leg5Ac7Ac (at concentrations of 20, 2 or 0.2 μg/ml final) were added and bacteria were incubated for 2 h. Serum bactericidal assays were then performed using 3.3% (solid black bars) or 10% (hatched bars) NHS. Controls included bacteria in media that lacked any CMP-nonulosonate, or bacteria that were incubated in CMP-Neu5Ac only. Y-axis, % survival.
We next determined the effects of incorporation of the CMP salts of five structural analogues of Neu5Ac (Neu5Gc, Neu5Ac9Ac, Neu5Ac9Az, Neu5Gc8Me and Leg5Ac7Ac) on the ability of N. gonorrhoeae F62 ΔIgtD to resist complement-dependent killing by normal human serum at concentrations of 10, 6.7 or 3.3%. Bacteria were grown either in media alone, or media supplemented with 30 μM (˜20 μg/ml) of each of the CMP-nonulosonates.
The ability of two of the CMP-nonulosonates, CMP-Neu5Ac9Az and CMP-Leg5Ac7Ac, to counter the ability of CMP-Neu5Ac to enhance serum resistance of N. gonorrrhoeae was then examined. The analogues were added at concentrations of 20, 2 or 0.2 μg/ml to growth media 15 min after the addition of CMP-Neu5Ac (20 μg/ml) to F62 ΔIgtD.
Serum bactericidal assays were performed as described previously (11). Bacteria harvested from an overnight culture on chocolate agar plates were grown in liquid media containing the specified concentration of CMP-nonulosonate as specified for each experiment. Approximately 2000 CFU of F62 ΔIgtD were incubated with NHS (concentration specified for each experiment). The final reaction volumes were maintained at 150 μl. […]

[3] = system: N. gonorrhoeae F62 ΔIgtD; assay: Flow cytometry for factor H binding to bacteria; type: cell-based
Protocol: FIG. 3. Effects of LOS modification with various nonulosonate analogues on fH binding to N. gonorrhoeae. N. gonorrhoeae F62 ΔIgtD was grown in media alone, or media supplemented with 20 μg/ml (˜30 μM) of each of the indicated CMP-nonulosonates. Binding of bacteria to fH (10 μg/ml) was measured by flow cytometry using polyclonal goat anti-human fH. The control indicates reaction mixtures that lacked fH. Y-axis, median fluorescence of fH binding. The mean (SD) of 2 independent repeats is shown.
FIG. 7. […] A. N. gonorrhoeae F62 ΔIgtD was incubated in media containing CMP-Neu5Ac (20 μg/ml), followed […] by the addition of either CMP-Neu5Ac9Az or CMP-Leg5Ac7Ac (20, 2 or 0.2 μg/ml). Bacteria were grown for 2 h and fH binding detected by FACS using polyclonal goat anti-human fH. The Y-axis represents median fluorescence. The mean (SEM) of two independent observations is shown. B. Development of serum resistance lags behind fH binding when measured as a function of time of exposure of bacteria to CMP-Neu5Ac. CMP-Neu5Ac (20 μg/ml) was added to media containing F62 ΔIgtD and bacteria were taken at the time points indicated on the X-axis and assayed for fH binding by FACS with anti-fH mAb 90× (left Y-axis; median fluorescence (SEM)), or tested for its ability to resist killing by 10% NHS (right Y-axis; percent survival). The data represent 2-3 independent experiments. C. Representative histograms of a fH binding FACS experiment.
The addition of a terminal Neu5Ac residue to LNT-expressing LOS enhances binding of the alternative pathway inhibitor, factor H, which contributes to the ability of sialylated gonococci to resist killing by complement (7). fH binding to N. gonorrhoeae F62 ΔIgtD grown in the presence of each of the CMP-nonulosonates (20 μg/ml or 30 μM) was examined (FIG. 3). […] Reducing the CMP-nonulosonate concentrations in growth media to 2 μg/ml (3 μM) yielded similar fH binding results (FIG. 9B). Further, modification of LOS with Neu5Ac or Neu5Gc yielded similar amounts of fH binding over CMP-sialic acid concentrations ranging from 0.5 to 4 μg/ml, with near maximal fH binding observed even at the lowest concentration tested (FIG. 9C).
fH binding to bacteria was performed using flow cytometry as described previously (14). Briefly, bacteria (F62 ΔIgtD) were harvested from chocolate agar plates and grown in liquid media that contained the specified concentration of the CMP-nonulosonate as described above. Bacteria were then washed with Hanks Balanced Salt Solution (HBSS) containing 1 mM Ca^2+ and 1 mM Mg^2+ (HBSS^++) and incubated with fH purified from human plasma (Complement Technology, Inc.; concentration specified for each experiment). Bound fH was detected using either anti-fH mAb (Quidel, catalog no. A254 (mAb 90×)) or goat anti-human fH, followed by FITC conjugated anti-mouse IgG or anti-goat IgG, respectively (Sigma); both Abs had similar performance characteristics. All reaction mixtures were carried out in HBSS^++/1% BSA in a final volume of 50 μl. Flow cytometry was performed using a FACSCalibur instrument (Becton Dickinson) and data were analyzed using FlowJo (version 7.2.5; Tree Star, Inc.).

T1 sequence (P72074 whole entry): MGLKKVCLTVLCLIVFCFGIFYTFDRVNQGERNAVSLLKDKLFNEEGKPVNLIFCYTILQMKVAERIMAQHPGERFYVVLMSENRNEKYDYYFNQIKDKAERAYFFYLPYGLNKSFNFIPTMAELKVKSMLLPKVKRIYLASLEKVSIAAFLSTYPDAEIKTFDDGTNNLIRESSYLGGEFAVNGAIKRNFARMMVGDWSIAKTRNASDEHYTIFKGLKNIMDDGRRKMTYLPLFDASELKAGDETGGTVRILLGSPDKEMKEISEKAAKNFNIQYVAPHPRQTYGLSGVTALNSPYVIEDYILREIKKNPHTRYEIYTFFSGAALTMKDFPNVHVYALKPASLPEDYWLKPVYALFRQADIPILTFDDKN

SMILES	mAb 3F11 binding / incorporation of nonulosonate onto LNT LOS (use as Lst substrate) [1]	resistance to 10% serum ([2]; CMP-nonulosonate 3 μM (~2 μg/ml), 10% serum)	Serum resistance ([2]; summary Table 1)	fH binding ([3]; CMP-nonulosonate 20 μg/ml or 30 μM, vs unsialylated F62 ΔIgtD)	fH binding ([3]; CMP-sialic acid 0.5 to 4 μg/ml, lowest concentration tested)	fH binding ([3]; summary Table 1)	bacterial survival / serum resistance ([2]; all serum concentrations tested (10, 6.7, 3.3%), 30 μM)
Nc1ccn([C@@H]2O[C@H](COP(=O)(O)O[C@@]3(C(=O)O)C[C@H](O)[C@@H](NC(=O)CO)[C@H]([C@H](O)[C@H](O)CO)O3)[C@@H](O)[C@H]2O)c(=O)n1 [CMP-Neu5Gc, CMP-5-hydroxyacetamido-3,5-dideoxy-D-glycero-D-galacto-nonulosonic acid, reference compound]	decreased binding of mAb 3F11	conferred resistance	high (>100% survival in 10% serum)	Maximal	near maximal	high	
CC(=O)N[C@H]([C@@H]1O[C@](OP(=O)(O)OC[C@H]2O[C@@H](n3ccc(N)nc3=O)[C@H](O)[C@@H]2O)(C(=O)O)C[C@H](O)[C@@H]1NC(C)=O)[C@H](C)O [CMP-Pse5Ac7Ac, reference compound]	not incorporated; also recorded: not utilized						did not affect serum resistance
